The source of these data is patent US8729053B2, “Nuclear factor kappa B pathway inhibitor composition and use of same” (The United States of America, as represented by the …, priority 2008, dated 2014).

The subject of assay [1] is JNK. Nature of the assay: Immunoblot of TPA-induced JNK phosphorylation. The format is cell-based. The note with it: 17.0 μM and 8.5 μM pretreatment. The procedure:
To measure endogenous level of several proteins in response to TPA induction and compound I, HEK293 cells were lysed with RIPA buffer (10 mM Tris-HCl pH 7.5, 1 mM EDTA, 0.1% sodium dodecyl sulfate, 0.1% deoxycholate, and protease inhibitor). Whole cell extracts were subjected to immunoblot analysis with the following antibodies: p65 (F-6), p50 (E-10), p52 (C-5), RelB (C-19), IκBα (C-21), PCNA (F-2) were obtained from Santa Cruz Biotechnology (Santa Cruz, Calif.). IKKα, IKKβ, IKKγ, phospho-IκBα, phospho-IKKα/β, phospho-IKKγ, pohospho-Stat3 (Tyr 705 and Ser 727), phospho-p65 (Ser536 and Ser276), phospho-p44/42, phospho-JNKs were purchased from Cell Signaling (Danvers, Mass.), and α-tubulin from Sigma (St. Louis, Mo.). Nuclear and cytoplasmic extracts were prepared with HEK293 cells by NE-PER Nuclear and Cytoplasmic Extraction Reagents (Pierce Biotechnology, Rockford, Ill.) according to the manufacturer's protocol.
The selectivity of compound I was evaluated by measuring phosphorylation of proteins involved in the AP-1 induction pathway. AP-1 dependent transcription can be activated by MAP Kinases JNK, ERK 1/2 (p44/42). […] At these concentrations compound I, in contrast, completely repressed major regulators in the NFκB activation pathway. JNKs are activated by a variety of environmental stresses responsible for AP-1 activation through c-Jun phosphorylation. […]

Assay [2] has as its target T1, IKKβ (Homo sapiens, UniProt O14920).
T1 construct: purchased Calbiochem
T1 sequence (O14920 1-756): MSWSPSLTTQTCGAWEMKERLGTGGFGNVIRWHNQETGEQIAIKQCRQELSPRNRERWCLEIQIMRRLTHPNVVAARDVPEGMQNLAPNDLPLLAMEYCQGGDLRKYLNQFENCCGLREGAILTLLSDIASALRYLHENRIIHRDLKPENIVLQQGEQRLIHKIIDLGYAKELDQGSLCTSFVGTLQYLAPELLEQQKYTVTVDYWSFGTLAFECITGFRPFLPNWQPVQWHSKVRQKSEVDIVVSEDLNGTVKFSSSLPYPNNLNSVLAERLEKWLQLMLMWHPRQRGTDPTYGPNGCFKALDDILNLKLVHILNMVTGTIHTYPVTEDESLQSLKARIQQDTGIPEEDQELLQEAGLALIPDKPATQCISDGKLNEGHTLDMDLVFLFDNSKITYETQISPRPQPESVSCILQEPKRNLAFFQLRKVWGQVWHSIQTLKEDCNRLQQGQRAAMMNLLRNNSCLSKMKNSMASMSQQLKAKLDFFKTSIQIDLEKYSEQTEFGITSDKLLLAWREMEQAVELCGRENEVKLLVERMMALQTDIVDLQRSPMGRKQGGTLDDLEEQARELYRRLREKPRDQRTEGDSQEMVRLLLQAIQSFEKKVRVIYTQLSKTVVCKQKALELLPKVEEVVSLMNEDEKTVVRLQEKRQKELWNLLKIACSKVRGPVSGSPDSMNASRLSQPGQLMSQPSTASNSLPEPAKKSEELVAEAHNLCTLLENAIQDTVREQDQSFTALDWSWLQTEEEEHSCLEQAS
Nature of the assay: Off-chip incubation mobility-shift kinase assay, IKKβ. The format is biochemical. The procedure: In an attempt to determine whether compound I interferes with ATP binding to the catalytic site, the activity of compound I was measured with fully activated, phosphorylated IKKα or IKKβ. […] However, whether this compound interacts outside of the ATP binding pocket of IKK as an ATP non-competitive inhibitor similar to BMS-345541 is unknown. […] Luciferase activities with TPA induction alone were set at 100% and the relative activities with TPA in the presence of compounds are shown.

The structures appear in SMILES notation. Where a name gives a salt, the structure may show the parent alone.

For the molecule `Cc1cc(N)ccc1N=Nc1ccc(S(=O)(=O)CCOS(=O)(=O)O)cc1` [compound I, 2-(4-((4-amino-2-methylphenyl)diazenyl)phenylsulfonyl)ethyl hydrogen sulfate], the “TPA-induced phosphorylation of endogenous JNK” value in assay [1] was “no repression”. Also, the “Binding to the ATP binding pocket of IKKβ” value in assay [2] is given as “no activity”. The “Inhibition of IKKβ activity, phosphorylation of a peptide substrate” value in assay [2] (fully activated, phosphorylated IKKβ, 1.25, 2.50, 5.00, and 10.00 μM) is recorded as “does not inhibit”.
